# In patent publication EP1400530A1, “Suppression of immune response via inhibition of cathepsin S” (MASSACHUSETTS INSTITUTE OF TECHNOLOGY, priority 1996, dated 1997):
# Tested on: Peripheral blood mononuclear cells (PBMC's)
# Format: cell-based, human
# Conditions: 3-5 days; 20 µM
structure (smiles),measurement,value
CCOC(=O)[C@H]1O[C@@H]1C(=O)N[C@@H](CC(C)C)C(=O)NCCC(C)C (relative stereo) [E64D],attenuation of 3H-thymidine uptake response to tetanus toxoid,approximately 60%
